Test results reported in patent US12264142B2, “Heterocyclic compounds” (FLORATEK PHARMA SA, priority 2019, dated 2025).

Key:
[1] = system: C. elegans; experiment: Life span assay on Automated Lifespan Machine (SND302, SND303); format: in vivo; settings: for Mean lifespan: area under the survival curve; for Age in days at 25% mortality / Age in days at 50% mortality / Age in days at 75% mortality / Age in days at 90% mortality / Age in days at 100% mortality: SND302, SND303 25 μM, Uro A, Resveratrol 50 μM; for Effect on lifespan: in words, compared to control
Method: An additional life span assay using an adapted standard protocol employed and published by the C. elegans Intervention Testing Program, or CITP was employed to assess the activity of SND302 and SND303. A positive and a negative control were included in the assay. In a preliminary experiment the optimal conditions for the life span analysis was determined and the stress level induced by the compounds as well as toxicity were measured.
For the life span assay over 300 worms per conditions were used and the study was conducted by InVivoBiosystems (USA) using an Automated Lifespan Machine (ALM) with proprietary modifications to improve temperature stability and image acquisition.
To prevent chemical modification or metabolism of the test article by the food bacteria, worms were fed on a lawn of UV-killed bacteria (UV-i bacteria). An overnight culture of E. coli strain WP-2 was pelleted, washed, filtered, and irradiated. A suspension of UV-i bacteria was spotted on NGM agar containing Streptomycin to inhibit growth of contaminating bacteria. The quantity and distribution of food bacteria was calibrated to ensure adequate access to food for the duration of assay while maintaining visibility of the worms.
Test article was delivered to worms by a method compatible with and previously validated on the Automated Lifespan Machine and used by the CIT [Lucanic, et. al. Impact of genetic background and experimental reproducibility on identifying chemical compounds with robust longevity effects. Nature Communications 8 (2017)]. A 200× stock solution was freshly prepared in DMSO immediately before application. 40 μl of DMSO stock (0.5% plate volume) was applied to the plate to coat the food bacteria and then chased immediately with 160 μl water to uniformly distribute a fine precipitate across the surface of the plate. This functioned to provide reservoirs of compound in food, agar, and agar surface.
The ALM used by InVivoBiosystems is based on the Caenorhabditis elegans lifespan machine published by Stroustrup, N. et al. The Caenorhabditis elegans Lifespan Machine. N at Methods 10, 665-670 (2013), with proprietary modifications to improve temperature stability and image acquisition. The scanner unit consists of a modified EPSON V850 and images are processed and analyzed using the ALM software 7. The machine time-of-death calls are trained and validated using the “storyboarding” feature of the ALM software.
The lifespan assay was designed and performed according to published and validated methods, Amrit, F. R. G., Ratnappan, R., Keith, S. A. & Ghazi, A. The C. elegans lifespan assay toolkit. Methods 68, 465-475 (2014); Lucanic, et. al. Manual Lifespan Assay Standard Operating Procedure. Caenorhabditis Intervention Testing Program https://figshare.com/articles/7_CITP_SOP_Manual_Lifespan_Assay/9738197/1. using a modified version of the Automated Lifespan Machine. Worms were age synchronized by bleaching and eggs were plated directly onto NGM agar seeded with UV-I bacteria (Day 1, hatch). On Day 3, when the worms had reached the late L4 stage, they were transferred to dishes containing 100 μM 5-Fluorodeoxyuridine (FUdR) to suppress progeny. On day 5, the worms were washed off the dishes and 30-50 worms were plated on each scanner dish. Plates were immobilized inverted on the bed of an Automated Lifespan Machine which scanned two images per hour of the plates continuously for the next 40 days.
Time of death calls exported from the ALM software were analyzed and plotted using the Lifelines software package developed by Davidson-Pilon, (2019). lifelines: survival analysis in Python. Journal of Open Source Software, 4(40), 1317.

[2] = system: C. elegans gene expression; experiment: Whole transcriptome analysis (RNA-Seq) of treated worms; format: in vivo
Method: To determine the mode of action for SND302 and SND303 the gene transcription in young and aged adults was analyzed by RNA-Seq (whole transcription analysis). For each condition, >300 worms were treated in parallel with the lifespan assay and maintained under identical conditions.
Differential gene expression was performed with EdgeR using […] likelihood ratio tests based on fitting linear models. The likelihood ratios were used to determine the p-values which were subsequently corrected for using the BH false discovery rate (fdr) method. Eventually, differential expressed genes were defined as genes with fdr-corrected p-value of 0.05 or lower, as well as a change in expression of at least 2-fold in a given between-group comparison. Compounds SND302 and SND303 were compared against Urolithin and Vehicle control. […] In general the transcriptomic data corroborates a differential effect for SND303 when compared to SND302 (FIGS. 1-4).
Worms for RNA-Seq were split from the same synchronized pool of worms for the lifespan with each of the three replicates being maintained and treated in parallel. More than 150 worms per replicate were harvested, cleaned by filtration, and frozen at −80° in Trizol. To extract RNA, samples were thawed, vigorously vortexed, and processed using the Direct-zol RNA Miniprep Kit (Zymo Research). All samples exceeded our threshold for RNA quantity and quality. RNA samples were submitted to Novogene Co. Ltd and subjected to more stringent QC, being tested on a Qubit for concentration and run on an agarose gel and on the Agilent […] assess RNA quality and integrity. […] The total RNA was then enriched for poly-mRNA using oligo(dT) paramagnetic beads. DNA libraries were then constructed from this input mRNA using the NEBNext Ultra™ II RNA Library Prep Kit.
These libraries were then further tested by the Qubit for concentration and the Agilent 2100 for library size distribution and quality. In order to properly pool the libraries and load them onto sequencing lanes to ensure the correct number of reads per sample, an even more precise quantification of the library was done via qPCR, and the samples were loaded onto the NovaSeq 6000 platform for a paired-end sequencing run of 150 bp for each end (PE150). The loading concentrations were designed to obtain at least 6.0 Gb (which is the number of billion bases of raw data, determined by the number of reads multiplied by the length of each read). A mean of 7.4 Gb (median 7.3 Gb) raw sequencing data was obtained across all samples, with a minimum of 6.3 Gb and a maximum of 8.5 Gb raw data. Sequencing run data quality control was performed both by Novogene and by an in-house analysis. The raw data set was analyzed for parameters such as the distribution of base quality along the length of the sequencing read, the distribution of error rate along the length of the sequencing read. Reads containing adapter sequences, with N>10% (where N means “base cannot be determined”) and with a low quality (Qscore<=5) for 50% or more of its total bases were removed.

Compound	Median lifespan ([1]; 25 μM) [days]	Mean lifespan ([1]; 25 μM) [days]	Age in days at 25% mortality [1] [days]	Age in days at 50% mortality [1] [days]	Age in days at 75% mortality [1] [days]	Age in days at 90% mortality [1] [days]	Age in days at 100% mortality [1] [days]	Effect on lifespan [1]	Significant differentially-expressed genes ([2]; Day 3, compared to the controls (Vehicle and Urolithin A), 25 μM)	Expression of gene C50F7.5 ([2]; Day 10)	Most significant differentially-expressed genes ([2]; Day 10, compared to vehicle) [genes]	Significant differentially-expressed genes ([2]; Day 10, compared with the UroA control) [genes]	Median lifespan ([1]; 50 μM) [days]	Mean lifespan ([1]; 50 μM) [days]	Differentially-expressed genes ([2]; Urolithin A compared with the vehicle control)
CC(C)NC(=O)Oc1ccc2c(c1)oc(=O)c1cc(OC(=O)NC(C)C)ccc12 [SND303]	29.0	27.6	25	29.0	31.8	33.9	39.9	clear and statistically significant lifespan extension	2-3 genes	significantly upregulated	7	3			
O=c1oc2cc(O)ccc2c2ccc(O)cc12 [Urolithin A, reference compound]			23.8	27.8	30.2	32.3	37.7	did not produce a significant change in lifespan					27.8	27.0	no differentially-expressed genes
